Format in all cases: in vivo
Series [1] relates to Beet Armyworm (Spodoptera exigua, LAPHEG). The series is described as follows: Bioassay on Beet Armyworm (BAW), 128-well diet tray assay. Particulars: 168 h, 50 μg/cm^2 on artificial diet, second instar larvae, 25° C., five to seven days, average of eight wells, read-out: BAW % Control (or Mortality) rating. The procedure, abridged:
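Diet in each of eight wells received 50 μg/cm^2 of test molecule (90:10 acetone-water, dried), then one to five second-instar larvae were added. Mortality (%) was scored after five to seven days at 25° C. under 14:10 light-dark and averaged across the wells.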

Series [2] deals with Cabbage Looper (Trichoplusia ni, TRIPNI). The series is described as follows: Bioassay on Cabbage Looper (CL), 128-well diet tray assay. To be noted: 168 h, 50 μg/cm^2 on artificial diet, second instar larvae, 25° C., five to seven days, average of eight wells, read-out: CL % Control (or Mortality) rating. In outline:
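Second-instar larvae, one to five per well, were placed on artificial diet surface-treated with 50 μg/cm^2 test molecule applied in 90:10 acetone-water and dried, eight wells per molecule. Trays were covered, vented and held at 25° C., 14:10 light-dark for five to seven days; percent mortality per well was averaged.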

The subject of series [3] is Yellow Fever Mosquito (Aedes aegypti, AEDSAE). Particulars: about 1 day-old larvae, 96-well plate from 4000 ppm DMSO master, 3 days at room temperature. On the procedure: Certain molecules disclosed in this document were tested against YFM using procedures described in the following paragraph. In the reporting of the results, the “GPA & YFM Rating Table” was used (See Table Section).
Master plates containing 400 μg of a molecule dissolved in 100 μL of dimethyl sulfoxide (DMSO) (equivalent to a 4000 ppm solution) are used. A master plate of assembled molecules contains 15 μL per well. To this plate, 135 μL of a 90:10 water/acetone mixture is added to each well. A robot is programmed to dispense 15 μL aspirations from the master plate into an empty 96-well shallow plate (“daughter” plate). There are 6 reps (“daughter” plates) created per master. The created “daughter” plates are then immediately infested with YFM larvae.
The day before plates are to be treated, mosquito eggs are placed in Millipore water containing liver powder to begin hatching (4 g. into 400 mL). After the “daughter” plates are created using the robot, they are infested with 220 μL of the liver powder/larval mosquito mixture (about 1 day-old larvae). After plates are infested with mosquito larvae, a non-evaporative lid is used to cover the plate to reduce drying. Plates are held at room temperature for 3 days prior to grading. After 3 days, each well is observed and scored based on mortality. The results are indicated in the table entitled “Table ABC: Biological Results” (See Table Section).

Broadly, the mortality is the share of the test organisms that died.

With `N#CC1(NC(=O)c2cc(NC(=O)[C@H]3[C@H](c4cc(Cl)cc(C(F)F)c4)C3(Cl)Cl)ccc2Cl)CC1` (relative stereo) [Molecule F85, trans-2-Chloro-N-(1-cyanocyclopropyl)-5-(2,2-dichloro-3-(3-chloro-5-(difluoro-methyl)phenyl)cyclopropane-1-carboxamido)benzamide], the mortality at 50 µg/cm2 in series [1] and in series [2] was 50 to 100% throughout. Further, in series [3], the “YFM % Control (or Mortality) rating” value is “A (80-100)”.

In the case of `N#CC1(NC(=O)c2cc(NC(=O)[C@H]3[C@H](c4ccc(Cl)c(C(F)F)c4)C3(Cl)Cl)ccc2Cl)CC1` (relative stereo) [Molecule F86, trans-2-Chloro-N-(1-cyanocyclopropyl)-5-(2,2-dichloro-3-(4-chloro-3-(difluoro-methyl)phenyl)cyclopropane-1-carboxamido)benzamide], the mortality at 50 µg/cm2 in series [1] and in series [2] was 50 to 100% each time. The “YFM % Control (or Mortality) rating” value in series [3] is “A (80-100)”.

As for `N#CC1(NC(=O)c2cc(NC(=O)[C@H]3[C@H](c4cc(F)cc(C(F)F)c4)C3(Cl)Cl)ccc2Cl)CC1` (relative stereo) [Molecule F87, trans-2-Chloro-N-(1-cyanocyclopropyl)-5-(2,2-dichloro-3-(3-(difluoromethyl)-5-fluorophenyl)cyclopropane-1-carboxamido)benzamide], the mortality at 50 µg/cm2 in series [1] and in series [2] was 50 to 100% in each case. Also, the “YFM % Control (or Mortality) rating” value in series [3] is “A (80-100)”.

As for `N#CC1(NC(=O)c2cc(NC(=O)[C@H]3[C@H](c4ccc(F)c(C(F)F)c4)C3(Cl)Cl)ccc2Cl)CC1` (relative stereo) [Molecule F88, trans-2-Chloro-N-(1-cyanocyclopropyl)-5-(2,2-dichloro-3-(3-(difluoromethyl)-4-fluorophenyl)cyclopropane-1-carboxamido)benzamide], the mortality at 50 µg/cm2 in series [1] and in series [2] was 50 to 100% throughout. For the same compound, the “YFM % Control (or Mortality) rating” value in series [3] is on record as “A (80-100)”.

Take `N#CC1(NC(=O)c2cc(NC(=O)[C@H]3[C@H](c4ccc(C(F)F)c(Cl)c4)C3(Cl)Cl)ccc2Cl)CC1` (relative stereo) [Molecule F89, trans-2-Chloro-N-(1-cyanocyclopropyl)-5-(2,2-dichloro-3-(3-chloro-4-(difluoromethyl)phenyl)cyclopropane-1-carboxamido)benzamide]: the mortality at 50 µg/cm2 in series [1] and in series [2] was 50 to 100% each time. The “YFM % Control (or Mortality) rating” value in series [3] is reported as “A (80-100)”.

`N#CC1(NC(=O)c2cc(NC(=O)[C@H]3[C@H](c4ccc(C(F)F)c(F)c4)C3(Cl)Cl)ccc2Cl)CC1` (relative stereo) [Molecule F90, trans-2-Chloro-N-(1-cyanocyclopropyl)-5-(2,2-dichloro-3-(4-(difluoromethyl)-3-fluorophenyl)cyclopropane-1-carboxamido)benzamide]: the mortality at 50 µg/cm2 in series [1] and in series [2] was 50 to 100% in each case. Besides, in series [3], the “YFM % Control (or Mortality) rating” value is reported as “A (80-100)”.

`N#CC1(NC(=O)c2cc(NC(=O)[C@H]3[C@H](c4cccc(C(F)F)c4)C3(Cl)Cl)ccc2Cl)CC1` (relative stereo) [Molecule F91, trans-2-Chloro-N-(1-cyanocyclopropyl)-5-(2,2-dichloro-3-(3-(difluoromethyl)-phenyl)cyclopropane-1-carboxamido)benzamide]: the mortality at 50 µg/cm2 in series [1] and in series [2] was 50 to 100% throughout. For the same compound, in series [3], the “YFM % Control (or Mortality) rating” value is given as “A (80-100)”.

Consider `N#CC1(NC(=O)c2cc(NC(=O)[C@H]3[C@H](c4ccc(C(F)F)cc4)C3(Cl)Cl)ccc2Cl)CC1` (relative stereo) [Molecule F92, trans-2-Chloro-N-(1-cyanocyclopropyl)-5-(2,2-dichloro-3-(4-(difluoromethyl)-phenyl)cyclopropane-1-carboxamido)benzamide], for which the mortality at 50 µg/cm2 in series [1] and in series [2] was 50 to 100% each time. Also, the “YFM % Control (or Mortality) rating” value in series [3] is given as “A (80-100)”.

For `N#CC1(NC(=O)c2cc(NC(=O)[C@H]3[C@H](c4cc(F)cc(Cl)c4)C3(Cl)Cl)ccc2Cl)CC1` (relative stereo) [PF1, trans-2-Chloro-N-(1-cyanocyclopropyl)-5-(2,2-dichloro-3-(3-chloro-5-fluorophenyl)cyclopropane-1-carboxamido)benzamide], the mortality at 50 µg/cm2 in series [1] and in series [2] was 50 to 100% each time. Besides, the “YFM % Control (or Mortality) rating” value in series [3] is reported as “A (80-100)”.

In the case of `N#CC1(NC(=O)c2cc(NC(=O)[C@H]3[C@H](c4cc(Cl)cc(Br)c4)C3(Cl)Cl)ccc2Cl)CC1` (relative stereo) [PF4, trans-5-(3-(3-Bromo-5-chlorophenyl)-2,2-dichlorocyclopropane-1-carboxamido)-2-chloro-N-(1-cyanocyclopropyl)benzamide], the mortality at 50 µg/cm2 in series [1] and in series [2] was 50 to 100% each time. Moreover, the “YFM % Control (or Mortality) rating” value in series [3] is recorded as “A (80-100)”.

As for `O=C(NC1CC(F)(F)C1)c1cc(NC(=O)[C@H]2[C@H](c3cc(F)cc(Cl)c3)C2(Cl)Cl)ccc1Cl` (relative stereo) [PF5, trans-2-Chloro-5-(2,2-dichloro-3-(3-chloro-5-fluorophenyl)cyclopropane-1-carboxamido)-N-(3,3-difluorocyclobutyl)benzamide], the mortality at 50 µg/cm2 in series [1] and in series [2] was 50 to 100% each time. Also, the “YFM % Control (or Mortality) rating” value in series [3] is reported as “B (More than 0-Less than 80)”.

For the compound `O=C(NC1CC(F)(F)C1)c1cc(NC(=O)[C@H]2[C@H](c3ccc(Cl)c(F)c3)C2(Cl)Cl)ccc1Cl` (relative stereo) [PF6, trans-2-Chloro-5-(2,2-dichloro-3-(4-chloro-3-fluorophenyl)cyclopropane-1-carboxamido)-N-(3,3-difluorocyclobutyl)benzamide], the mortality at 50 µg/cm2 in series [1] and in series [2] was 50 to 100% in each case. Besides, the “YFM % Control (or Mortality) rating” value in series [3] was “D (No activity noticed in this bioassay)”.

Regarding `O=C(NC1CN(C(=O)C2CC2)C1)c1cc(NC(=O)[C@H]2[C@H](c3cc(Cl)cc(Cl)c3)C2(Cl)Cl)ccc1Cl` (relative stereo) [PF9, trans-2-chloro-N-(1-(cyclopropanecarbonyl)-azetidin-3-yl)-5-(2,2-dichloro-3-(3,5-dichlorophenyl)cyclopropane-1-carboxamido)benzamide], the mortality at 50 µg/cm2 in series [1] and in series [2] was 50 to 100% in each case. Moreover, in series [3], the “YFM % Control (or Mortality) rating” value was “B (More than 0-Less than 80)”.

Regarding `O=C(NC1CN(C(=O)CC(F)(F)F)C1)c1cc(NC(=O)[C@H]2[C@H](c3cc(Cl)cc(Cl)c3)C2(Cl)Cl)ccc1Cl` (relative stereo) [PF12, trans-2-Chloro-5-(2,2-dichloro-3-(3,5-dichlorophenyl)cyclopropane-1-carboxamido)-N-(1-(3,3,3-trifluoropropanoyl)azetidin-3-yl)benzamide], the mortality at 50 µg/cm2 in series [1] and in series [2] was 50 to 100% throughout. Further, the “YFM % Control (or Mortality) rating” value in series [3] is recorded as “A (80-100)”.

As to `COCC(=O)N1CC(NC(=O)c2cc(NC(=O)[C@H]3[C@H](c4cc(Cl)cc(Cl)c4)C3(Cl)Cl)ccc2Cl)C1` (relative stereo) [PF14, trans-2-Chloro-5-(2,2-dichloro-3-(3,5-dichlorophenyl)cyclopropane-1-carboxamido)-N-(1-(2-methoxyacetyl)azetidin-3-yl)benzamide], the mortality at 50 µg/cm2 in series [1] and in series [2] was 50 to 100% in each case. Moreover, the “YFM % Control (or Mortality) rating” value in series [3] is listed as “A (80-100)”.

`O=C(NC1CC[S+]([O-])C1)c1cc(NC(=O)[C@H]2[C@H](c3cc(Cl)c(Cl)c(Cl)c3)C2(Cl)Cl)ccc1Cl` (relative stereo) [PF18, trans-2-chloro-5-(2,2-dichloro-3-(3,4,5-trichloro-phenyl)cyclopropane-1-carboxamido)-N-(1-oxidotetrahydrothiophen-3-yl)-benzamide]: the mortality at 50 µg/cm2 in series [1] and in series [2] was 50 to 100% throughout. Besides, the “YFM % Control (or Mortality) rating” value in series [3] is recorded as “A (80-100)”.

For the compound `O=C(NC1CCS(=O)(=O)C1)c1cc(NC(=O)[C@H]2[C@H](c3cc(Cl)c(Cl)c(Cl)c3)C2(Cl)Cl)ccc1Cl` (relative stereo) [PF19, trans-2-Chloro-5-(2,2-dichloro-3-(3,4,5-trichlorophenyl)cyclopropane-1-carboxamido)-N-(1,1-dioxidotetrahydrothiophen-3-yl)benzamide], the mortality at 50 µg/cm2 in series [1] and in series [2] was 50 to 100% throughout. In addition, the “YFM % Control (or Mortality) rating” value in series [3] is reported as “B (More than 0-Less than 80)”.

Source of the values: US9795139B2, “Molecules having pesticidal utility, and intermediates, compositions, and processes, related thereto” (priority 2015, dated 2017).
